Data on five compounds can be found in ChEMBL document CHEMBL3044631, “Synthesis of 2-[4,5-dimethyl-1-(phenylamino)-1H-imidazol-2-ylthio]-N-(thiazole-2-yl)acetamide derivatives and their anticancer activities” (2013).

Structures are written as SMILES. Some results are limits rather than exact numbers.

What all share (format): functional
The test system of one experiment is CCRF-CEM. Description: Anticancer activity against Homo sapiens (human) CCRF-CEM cells assessed as cell growth promotion at 10 uM after 48 hr by SRB assay.
For a further experiment, the system named is OVCAR-4. Description: Anticancer activity against Homo sapiens (human) OVCAR4 cells after 48 hr by SRB assay. The conditions noted are these: OVCAR-4, 48 h.
A further experiment concerns Malme-3M. Description: Anticancer activity against Homo sapiens (human) MALME-3M cells after 48 hr by SRB assay.
The test system of another experiment is NCI-H460. Description: Anticancer activity against Homo sapiens (human) NCI-H460 cells after 48 hr by SRB assay. The conditions noted are these: NCI-H460, 48 h. In general terms: Sulforhodamine B stains cellular protein and so reports cell mass.
Another experiment has as its system NCI-H322M. Description: Anticancer activity against Homo sapiens (human) NCI-H322M cells after 48 hr by SRB assay.
Another experiment deals with HL-60(TB). Description: Anticancer activity against Homo sapiens (human) HL-60(TB) cells after 48 hr by SRB assay. The conditions noted are these: HL-60, 48 h.
In a further experiment the test system is OVCAR-3. Description: Anticancer activity against Homo sapiens (human) OVCAR3 cells after 48 hr by SRB assay. The conditions noted are these: OVCAR-3, 48 h.
The subject of the next experiment is UO-31. Description: Anticancer activity against Homo sapiens (human) UO31 cells after 48 hr by SRB assay. The conditions noted are these: UO-31, 48 h.
A further experiment deals with A549. Description: Anticancer activity against Homo sapiens (human) A549/ATCC cells after 48 hr by SRB assay. The conditions noted are these: A549, 48 h.
Another experiment has as its system MDA-MB-468. Description: Anticancer activity against Homo sapiens (human) MDA-MB-468 cells after 48 hr by SRB assay. The conditions noted are these: MDA-MB-468, 48 h.
A further experiment has as its system T47D. Description: Anticancer activity against Homo sapiens (human) T47D cells after 48 hr by SRB assay.
Another experiment has as its system SNB-75. Description: Anticancer activity against Homo sapiens (human) SNB75 cells after 48 hr by SRB assay. Conditions: SNB-75, 48 h.
In the next experiment the test system is K562. Description: Anticancer activity against Homo sapiens (human) K562 cells after 48 hr by SRB assay. The conditions noted are these: K562, 48 h.
A further experiment deals with DU-145. Description: Anticancer activity against Homo sapiens (human) DU145 cells after 48 hr by SRB assay. Conditions: DU-145, 48 h.
In a further experiment the test system is NCI-H23. Description: Anticancer activity against Homo sapiens (human) NCI-H23 cells after 48 hr by SRB assay. The conditions noted are these: NCI-H23, 48 h.
The next experiment concerns HT-29. Description: Anticancer activity against Homo sapiens (human) HT-29 cells after 48 hr by SRB assay. Conditions: HT-29, 48 h.
Another experiment has as its system SK-MEL-5. Description: Anticancer activity against Homo sapiens (human) SK-MEL-5 cells after 48 hr by SRB assay. Conditions: SK-MEL-5, 48 h.
The next experiment relates to COLO 205. Description: Anticancer activity against Homo sapiens (human) COLO205 cells after 48 hr by SRB assay. The conditions noted are these: COLO 205, 48 h.
The next experiment has as its system NCI/ADR-RES. Description: Anticancer activity against Homo sapiens (human) NCI/ADR-RES cells after 48 hr by SRB assay.
The subject of another experiment is OVCAR-8. Description: Anticancer activity against Homo sapiens (human) OVCAR8 cells after 48 hr by SRB assay. The conditions noted are these: OVCAR-8, 48 h.
The test system of the next experiment is SF-295. Description: Anticancer activity against Homo sapiens (human) SF295 cells after 48 hr by SRB assay. The conditions noted are these: SF-295, 48 h.
The test system of a further experiment is SF-268. Description: Anticancer activity against Homo sapiens (human) SF268 cells after 48 hr by SRB assay. Conditions: SF-268, 48 h.
For a further experiment, the system named is Hs-578T. Description: Anticancer activity against Homo sapiens (human) Hs 578T cells after 48 hr by SRB assay.
A further experiment concerns SN12C. Description: Anticancer activity against Homo sapiens (human) SN12C cells after 48 hr by SRB assay.
A further experiment has as its system SF-539. Description: Anticancer activity against Homo sapiens (human) SF539 cells after 48 hr by SRB assay. The conditions noted are these: SF-539, 48 h.
A further experiment relates to U-251. Description: Anticancer activity against Homo sapiens (human) U251 cells after 48 hr by SRB assay. Conditions: U-251, 48 h.
A further experiment relates to MOLT-4. Description: Anticancer activity against Homo sapiens (human) MOLT4 cells after 48 hr by SRB assay. Conditions: MOLT-4, 48 h.
A further experiment deals with HCT-15. Description: Anticancer activity against Homo sapiens (human) HCT15 cells after 48 hr by SRB assay. The conditions noted are these: HCT-15, 48 h.
In a further experiment the test system is SK-MEL-2. Description: Anticancer activity against Homo sapiens (human) SK-MEL-2 cells after 48 hr by SRB assay. Conditions: SK-MEL-2, 48 h.
A further experiment relates to EKVX. Description: Anticancer activity against Homo sapiens (human) EKVX cells after 48 hr by SRB assay.
The subject of another experiment is SW-620. Description: Anticancer activity against Homo sapiens (human) SW620 cells after 48 hr by SRB assay. The conditions noted are these: SW-620, 48 h.
The mark [1] stands for this setting: read-out: LC50 (the source's name).

In the case of `Cc1nc(SCC(=O)Nc2nccs2)n(Nc2ccc(Cl)cc2)c1C`, in the experiment on CCRF-CEM, the Activity was determined as 99.59%.

`CCOC(=O)c1csc(NC(=O)CSc2nc(C)c(C)n2Nc2ccc(C)cc2)n1`: the Activity in the experiment with CCRF-CEM came out at 24.68%.

On to `COc1ccc(Nn2c(SCC(=O)Nc3nccs3)nc(C)c2C)cc1`, for which the Activity with CCRF-CEM is 100.87%.

As for `Cc1ccc(Nn2c(SCC(=O)Nc3nc(-c4ccccc4)cs3)nc(C)c2C)cc1`, the GI50 (in general, the concentration giving 50% growth inhibition) with OVCAR-4 was 2.13 µM; in the experiment with Malme-3M, 2.48 µM; in the experiment on NCI-H460, 3.88 µM; with NCI-H322M, 10.2 µM; with HL-60(TB) it was 4.64 µM; in the experiment on OVCAR-3 it was 8.24 µM. In addition, the GI50 in the experiment on UO-31 was found to be 2.89 µM; in the experiment with A549, 3.03 µM; with MDA-MB-468 it was 1.7 µM; in the experiment with T47D, 1.85 µM; with SNB-75 it was 2.81 µM; with K562, 3.62 µM. Further, the GI50 was 9.75 µM in the experiment on DU-145; 3.42 µM in the experiment with NCI-H23; 4.37 µM in the experiment with HT-29; 2 µM in the experiment on SK-MEL-5; 3.98 µM with COLO 205; 3.04 µM in the experiment with NCI/ADR-RES. For the same compound, the GI50 in the experiment with OVCAR-8 turned out to be 3.79 µM; in the experiment with SF-295, 1.06 µM; with SF-268, 9.1 µM; in the experiment with Hs-578T, 3.41 µM; in the experiment on SN12C, 3.2 µM; in the experiment on SF-539, 4.68 µM. Moreover, the GI50 with U-251 is 4.5 µM; with MOLT-4 it was 3.46 µM; in the experiment with HCT-15, 5.17 µM; in the experiment with SK-MEL-2 it was 7.58 µM; in the experiment on EKVX it was 1.39 µM; with SW-620 it was 8.03 µM. The LC50 (concentration killing 50% of starting cells) with OVCAR-4 is more than 100 µM. Besides, the TGI – broadly, the concentration at which net growth stops – in the experiment with OVCAR-4 is more than 100 µM; in the experiment with Malme-3M, 13.6 µM; in the experiment on NCI-H460, 16.5 µM; in the experiment on NCI-H322M, more than 100 µM; in the experiment on HL-60(TB) it was 39.1 µM; in the experiment with OVCAR-3, more than 100 µM. In addition, the TGI is more than 100 µM in the experiment with UO-31; more than 100 µM in the experiment on A549; 6.67 µM in the experiment with MDA-MB-468; 10.4 µM with T47D; more than 100 µM in the experiment on SNB-75; more than 100 µM in the experiment on K562. The TGI was 64.6 µM in the experiment on DU-145; more than 100 µM in the experiment on NCI-H23; 28.2 µM in the experiment with HT-29; 5.72 µM in the experiment with SK-MEL-5; 34.4 µM in the experiment on COLO 205; 22.2 µM with NCI/ADR-RES. The TGI in the experiment with OVCAR-8 is more than 100 µM; in the experiment on SF-295, 5.89 µM; with SF-268 it was more than 100 µM; in the experiment on Hs-578T it was more than 100 µM; with SN12C, 14.2 µM; in the experiment on SF-539, 35.2 µM. In addition, the TGI in the experiment on U-251 was more than 100 µM; in the experiment on MOLT-4 it was more than 100 µM; in the experiment on HCT-15, more than 100 µM; in the experiment on SK-MEL-2 it was 35.3 µM; in the experiment with EKVX, 5.61 µM; with SW-620 it was more than 100 µM. Further, the CC50 in the experiment on Malme-3M (setting [1]), in the experiment with NCI-H322M (setting [1]), in the experiment with HL-60(TB) (setting [1]), in the experiment on UO-31 (setting [1]), in the experiment with T47D (setting [1]) and in the experiment on K562 (setting [1]) was more than 100 µM throughout. Also, the CC50 in the experiment on NCI-H23 (setting [1]), with COLO 205 (setting [1]), in the experiment on OVCAR-8 (setting [1]), in the experiment with Hs-578T (setting [1]), in the experiment with HCT-15 (setting [1]) and in the experiment with EKVX (setting [1]) was more than 100 µM each time. Also, the median lethal concentration (LC50) (as a rule, the concentration lethal to half of the exposed cells or organisms) was 83.3 µM in the experiment with NCI-H460; more than 100 µM with A549; more than 100 µM in the experiment on MDA-MB-468; more than 100 µM in the experiment on SNB-75; more than 100 µM in the experiment on HT-29; more than 100 µM with NCI/ADR-RES. Moreover, the LC50 in the experiment with SF-295 and with SF-268 was more than 100 µM in each case. Further, the LC50 (50% lethal concentration) in the experiment with OVCAR-3 and in the experiment on MOLT-4 was more than 100 µM throughout. The Activity in the experiment on CCRF-CEM was determined as 57.71%. Besides, the LC50 (concentration killing 50% of cells) in the experiment on DU-145 is more than 100 µM; in the experiment with SK-MEL-5, 23.8 µM; in the experiment on SN12C, 63 µM; with SF-539, more than 100 µM; in the experiment with SK-MEL-2 it was more than 100 µM; in the experiment on SW-620, more than 100 µM. The same compound returned an LC50 (lethal concentration, 50% net cell kill) with U-251 of more than 100 µM.

As to `Cc1nc(SCC(=O)Nc2nccs2)n(Nc2ccccc2)c1C`, in the experiment on CCRF-CEM, the Activity is 102.19%.
